Measurements as given in US20190040004A1, “NEW COMPOUNDS FOR THE TREATMENT AND/OR PREVENTION OF PARASITIC DISEASES AND METHOD OF PRODUCTION OF THEREOF” (INSTITUT DE RECHERCHE POUR LE DEVELOPPEMENT (I.R.D.), priority 2013, published 2019).
“Also recorded” adds a separate entry of the source. Where two headings read alike, the source gives them in different places.

How the values were obtained:
[1] = test system: deacetylase activity in total protein extracts of T. gondii; assay: Deacetylase activity in total protein extracts of T. gondii; assay type: biochemical; conditions: 125 nM
recombinant HDAC6 = target: T1, recombinant HDAC6 (Homo sapiens, UniProt Q9UBN7); assay: Recombinant HDAC6 inhibition; assay type: biochemical
T1 sequence (Q9UBN7 1-1215): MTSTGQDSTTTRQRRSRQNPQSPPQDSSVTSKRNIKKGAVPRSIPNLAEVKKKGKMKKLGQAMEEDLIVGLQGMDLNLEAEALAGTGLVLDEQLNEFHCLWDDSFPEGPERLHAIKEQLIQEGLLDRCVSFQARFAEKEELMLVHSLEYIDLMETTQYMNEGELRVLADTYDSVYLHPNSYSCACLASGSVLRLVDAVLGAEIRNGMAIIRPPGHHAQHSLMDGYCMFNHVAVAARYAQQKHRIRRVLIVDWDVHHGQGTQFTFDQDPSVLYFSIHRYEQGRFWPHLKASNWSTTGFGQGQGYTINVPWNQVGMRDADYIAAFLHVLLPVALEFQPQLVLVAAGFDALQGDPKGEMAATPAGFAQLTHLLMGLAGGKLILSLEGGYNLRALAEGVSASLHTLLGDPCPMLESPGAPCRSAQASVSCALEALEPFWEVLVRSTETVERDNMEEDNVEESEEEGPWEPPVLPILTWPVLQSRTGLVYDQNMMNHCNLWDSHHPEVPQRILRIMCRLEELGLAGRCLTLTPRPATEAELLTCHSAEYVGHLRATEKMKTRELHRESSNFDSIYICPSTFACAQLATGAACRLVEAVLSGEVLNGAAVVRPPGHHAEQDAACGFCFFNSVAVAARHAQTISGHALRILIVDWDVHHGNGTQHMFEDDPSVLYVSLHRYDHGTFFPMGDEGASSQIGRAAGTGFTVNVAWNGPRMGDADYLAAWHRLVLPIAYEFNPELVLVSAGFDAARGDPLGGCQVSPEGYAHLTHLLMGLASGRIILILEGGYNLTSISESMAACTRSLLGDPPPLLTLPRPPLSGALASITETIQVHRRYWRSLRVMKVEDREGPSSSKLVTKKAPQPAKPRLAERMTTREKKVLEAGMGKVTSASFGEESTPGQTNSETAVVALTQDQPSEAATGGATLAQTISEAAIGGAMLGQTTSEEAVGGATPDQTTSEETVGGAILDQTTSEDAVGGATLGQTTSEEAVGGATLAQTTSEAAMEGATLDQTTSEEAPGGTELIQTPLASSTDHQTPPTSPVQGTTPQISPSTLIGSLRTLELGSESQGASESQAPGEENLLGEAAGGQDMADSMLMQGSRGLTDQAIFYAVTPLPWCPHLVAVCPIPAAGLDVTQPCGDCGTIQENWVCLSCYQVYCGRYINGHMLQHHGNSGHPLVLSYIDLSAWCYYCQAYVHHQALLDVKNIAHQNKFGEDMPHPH

THP-1 cells = assay: MTT cytotoxicity on THP-1 host cells; assay type: cell-based
Experimental: (§1) Antiparasitic activity of a compound is represented by ICo50, which is calculated with Prism software (Prism4 for MacOSX Version 5.0b, December 2008). The cytoxicity of a compound against the host cells of L. infantum and T. gondii, such as THP-1 or HFF cells, was determined with a MTT assay, according to previously described protocol (Sereno et al., Antimicrob Agents Chemother. 2001, 45(4):1168-73). THP-1 is derived from the peripheral blood ofa human with acute monocytic leukemia.

recombinant HDAC3 = recombinant HDAC3 (Homo sapiens, UniProt O15379); assay: Recombinant HDAC3 inhibition; assay type: biochemical
recombinant HDAC3, sequence (O15379 whole entry): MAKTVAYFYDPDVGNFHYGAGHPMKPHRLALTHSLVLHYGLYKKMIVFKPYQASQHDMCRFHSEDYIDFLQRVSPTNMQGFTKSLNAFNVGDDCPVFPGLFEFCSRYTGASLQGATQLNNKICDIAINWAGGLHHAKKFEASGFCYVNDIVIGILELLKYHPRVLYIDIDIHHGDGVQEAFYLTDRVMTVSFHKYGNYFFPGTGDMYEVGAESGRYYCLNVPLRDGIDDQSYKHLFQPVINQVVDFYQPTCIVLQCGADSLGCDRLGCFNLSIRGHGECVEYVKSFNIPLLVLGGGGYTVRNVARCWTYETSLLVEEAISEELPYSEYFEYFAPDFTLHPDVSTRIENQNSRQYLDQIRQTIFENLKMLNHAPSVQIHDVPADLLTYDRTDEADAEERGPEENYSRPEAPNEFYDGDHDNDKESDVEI
recombinant HDAC3, sequence (Q9Y618 395-489 partner limits assumed): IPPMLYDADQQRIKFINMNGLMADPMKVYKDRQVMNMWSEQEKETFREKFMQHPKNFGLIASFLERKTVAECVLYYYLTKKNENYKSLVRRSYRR

recombinant HDAC 8 = target: T2, recombinant HDAC 8 (Homo sapiens, UniProt Q9BY41); assay: Recombinant HDAC8 inhibition; assay type: biochemical
T2 sequence (Q9BY41 1-377): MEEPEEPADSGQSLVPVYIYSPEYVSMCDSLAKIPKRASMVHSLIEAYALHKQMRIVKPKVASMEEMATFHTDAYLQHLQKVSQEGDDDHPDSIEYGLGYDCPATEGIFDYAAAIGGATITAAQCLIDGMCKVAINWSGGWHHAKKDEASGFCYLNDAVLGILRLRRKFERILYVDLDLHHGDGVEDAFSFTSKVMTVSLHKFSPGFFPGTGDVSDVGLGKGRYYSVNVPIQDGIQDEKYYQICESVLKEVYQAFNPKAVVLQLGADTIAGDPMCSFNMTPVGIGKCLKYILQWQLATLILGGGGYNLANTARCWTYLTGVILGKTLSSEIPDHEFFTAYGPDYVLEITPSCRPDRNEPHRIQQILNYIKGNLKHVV

HFF cells = assay: MTT cytotoxicity on HFF host cells; assay type: cell-based
Experimental: as §1

recombinant HDAC1 = recombinant HDAC1 (Homo sapiens, UniProt Q13547); assay: Recombinant HDAC1 inhibition; assay type: biochemical
recombinant HDAC1, sequence (Q13547 whole entry): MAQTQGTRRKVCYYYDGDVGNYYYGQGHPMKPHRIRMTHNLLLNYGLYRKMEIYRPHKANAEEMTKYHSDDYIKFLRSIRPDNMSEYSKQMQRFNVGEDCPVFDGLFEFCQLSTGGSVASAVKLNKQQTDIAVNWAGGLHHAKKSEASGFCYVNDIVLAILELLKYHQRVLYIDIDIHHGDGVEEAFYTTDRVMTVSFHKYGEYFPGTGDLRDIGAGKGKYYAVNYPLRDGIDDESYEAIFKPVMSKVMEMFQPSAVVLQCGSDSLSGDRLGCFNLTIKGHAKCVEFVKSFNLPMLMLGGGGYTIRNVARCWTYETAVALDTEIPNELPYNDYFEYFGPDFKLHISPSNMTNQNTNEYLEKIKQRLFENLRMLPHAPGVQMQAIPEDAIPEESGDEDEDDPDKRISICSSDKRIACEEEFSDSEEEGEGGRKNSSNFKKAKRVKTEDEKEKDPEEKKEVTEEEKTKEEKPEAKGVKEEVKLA
Experimental: FIG. 2 illustrates the capacity of the different compounds of 600 nM to inhibit HDAC activity from HELA nuclear extract and from HDAC-recombinant proteins (HDAC 1, HDAC 3, HDAC 6, HDAC 8).
HDAC inhibitory activity was determined by a fluorimetric HDAC assay kit (Active-motif, Belgium), according to manufacturer's instructions. Briefly, 30 μL of HeLa nuclear extract were mixed with 5 μL of 10× compound to be tested and 10 μL of assay buffer. Fluorogenic substrate (10 μL) was added, reaction was allowed to proceed for 30 min at room temperature, then stopped by the addition of a developer containing Tichostatin A. Fluorescence was monitored after 30 min at excitation and emission wavelengths of 360 and 460 nm, respectively. […].

[2] = test system: type II Prugniaud parasites; assay: Type II Prugniaud Toxoplasma proliferation in HFF; assay type: cell-based, Toxoplasma gondii; conditions: 0.025 to 0.8 uM, 24 h
Experimental: To compare the activity of compounds according to the invention to that of prior art on toxoplasma proliferation, human foreskin fibroblasts (HFF) were plated in 96-wells plate (10 000 cells per well). Twenty-four hours later, cells were infected with 40 000 parasites, either RH-YFP type I or type II Prugniaud parasites or tachyzoites (kindly provided by B. Striepen, Athens) for one hour. Cells were then washed and drugs (compound D16 of formula
(FIG. 4 and FIG. 5) or compound according to the invention (363) (FIG. 6) added at various concentrations ranging from 0.025 to 0.8 uM. After 24 h, cells were washed and fixed (PBS-formaldehyde 2%) and nucleus stained with Hoechst 33258 (2 μg/ml). The number of infected cells ie. cells harbouring a parasitophorous vacuole and the number of parasites per vacuole was determined using an Olympus ScanR microscope (Olympus).

Babesia = Babesia proliferation; assay type: cell-based
[3] = test system: HDAC activity from HELA nuclear extract; assay: Fluorimetric HDAC assay, HeLa nuclear extract; assay type: biochemical, human; conditions: read-out: IC50 (better HDAC inhibitor among 9 tested compounds)
Experimental: (§2) HDAC inhibitory activity was determined by a fluorimetric HDAC assay kit (Active-motif, Belgium), according to manufacturer's instructions. […] Fluorogenic substrate (10 μL) was added, reaction was allowed to proceed for 30 min at room temperature, then stopped by the addition of a developer containing Tichostatin A.

[4] = test system: T3, HDAC activity from HELA nuclear extract; assay: Fluorimetric HDAC assay, HeLa nuclear extract; assay type: biochemical, human; conditions: HeLa nuclear extract, fluorimetric HDAC kit; read-out: HELA Nuclear extracts IC50
T3 construct: HELA Nuclear extracts IC50; other: HeLa nuclear extract, fluorimetric HDAC kit; […]
Experimental: as §2

[5] = test system: T4, HDAC activity from HELA nuclear extract; assay: Fluorimetric HDAC assay, HeLa nuclear extract; assay type: biochemical, human; conditions: 600 nM; HELA nuclear extract and HDAC-recombinant proteins
T4 construct: other: 600 nM; HELA nuclear extract and HDAC-recombinant proteins
Experimental: as §2

For `COc1cccc(CC(=O)Nc2ccc(C(=O)NO)cc2)c1` [Compound 363], the “inhibitory effect on deacetylase activity of T. gondii extracts, in words” value [1] was “strong inhibitory effect”, the “inhibition of T. gondii deacetylase activity” value ([1]; total protein extracts) was 44% and the IC50 (recombinant HDAC6) was 45 nM. For the same compound, the “IS Selectivity index LD50 (THP-1)/IC50 T. gondii” value (THP-1 cells; THP-1) was 10.3, the “THP-1 LD50” value (THP-1 cells; human) was 3.6 ± 0.5 µM and the IC50 (recombinant HDAC3) was 160 nM. For the same compound, the IC50 (recombinant HDAC 8) was 863 nM, the “IS Selectivity index LD50 (HFF)/IC50 T. gondii” value (HFF cells; HFF) was 300 and the “HFF LD50” value (HFF cells; human) was 105 ± 10.5 µM. The IC50 (recombinant HDAC1) was 257 nM, the “inhibitory activity on type II Prugniaud parasites proliferation, in words” value [2] was “potent inhibitory effect; also recorded: potent inhibitory activity” and the IC50 (Babesia) was about 1000 nM. The IC50 [3] was 3600 nM, the IC50 [4] was 85 nM and the “inhibition of human HDAC activity (FIG. 2), in words” value [5] was “most potent inhibitor”.
